Experimental data published in patent US11040035B2, “3-oxo-2,6-diphenyl-2,3-dihydropyridazine-4-carboxamides” (BAYER PHARMA AKTIENGESELLSCHAFT, priority 2016, dated 2021).

Columns and labels:
AHR [1] = biological target: T1, AHR (Homo sapiens, UniProt P35869); experiment: In vitro assay 1: antagonism in human cell line (transactivation assay, kynurenic acid prestimulated); details: Assay 1: AHR-luc Hum Antagonism IC50 [M], 150 μM kynurenic acid, 20 hours, firefly luciferase
T1 sequence (P35869 11-848): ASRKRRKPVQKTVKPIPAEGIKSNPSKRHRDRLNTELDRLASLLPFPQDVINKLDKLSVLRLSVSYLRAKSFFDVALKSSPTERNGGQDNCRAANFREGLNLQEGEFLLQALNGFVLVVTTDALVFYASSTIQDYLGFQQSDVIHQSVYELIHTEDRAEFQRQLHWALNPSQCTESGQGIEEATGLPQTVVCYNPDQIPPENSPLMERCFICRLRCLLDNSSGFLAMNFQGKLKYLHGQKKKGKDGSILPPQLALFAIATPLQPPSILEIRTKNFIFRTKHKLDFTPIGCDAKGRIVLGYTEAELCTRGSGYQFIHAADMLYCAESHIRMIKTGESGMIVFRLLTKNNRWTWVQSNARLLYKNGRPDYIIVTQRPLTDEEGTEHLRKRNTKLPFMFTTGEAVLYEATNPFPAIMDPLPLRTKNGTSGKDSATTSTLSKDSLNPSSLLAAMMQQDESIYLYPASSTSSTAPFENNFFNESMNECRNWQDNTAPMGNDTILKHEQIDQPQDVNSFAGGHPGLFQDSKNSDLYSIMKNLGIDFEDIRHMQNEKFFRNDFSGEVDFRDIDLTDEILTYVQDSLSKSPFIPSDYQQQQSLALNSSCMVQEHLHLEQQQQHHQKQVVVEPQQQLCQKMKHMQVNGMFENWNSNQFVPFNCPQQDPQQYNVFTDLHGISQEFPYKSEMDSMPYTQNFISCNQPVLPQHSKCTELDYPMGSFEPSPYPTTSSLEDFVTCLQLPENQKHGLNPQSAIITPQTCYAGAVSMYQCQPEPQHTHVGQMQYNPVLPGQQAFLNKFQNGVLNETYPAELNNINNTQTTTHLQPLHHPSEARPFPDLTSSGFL

AHR [2] = biological target: T1, AHR; experiment: In vitro assay 2: agonism in human cell line (transactivation assay); details: Assay 2: AHR-luc Hum Agonism IC50 [M], no kynurenic acid, 20 hours, firefly luciferase

Cc1ccc(-c2cc(C(=O)NC(CO)C3CC3)c(=O)n(-c3cccc(F)c3)n2)cc1 (racemic) [Example 236, N-[(1RS)-1-Cyclopropyl-2-hydroxyethyl]-2-(3-fluorophenyl)-6-(4-methylphenyl)-3-oxo-2,3-dihydropyridazine-4-carboxamide]
IC50 (AHR [1]): 8.23e-08 M
IC50 (AHR [2]): > 2e-05 M

CC(C)C(O)CNC(=O)c1cc(-c2ccc(C(F)(F)F)cc2)nn(-c2cccc(F)c2)c1=O (racemic) [Example 241, 2-(3-Fluorophenyl)-N-[(2RS)-2-hydroxy-3-methylbutyl]-3-oxo-6-[4-(trifluoromethyl)phenyl]-2,3-dihydropyridazine-4-carboxamide]
IC50 (AHR [1]): > 2e-05 M
IC50 (AHR [2]): 1.16e-07 M

O=C(NCC(O)C(F)(F)F)c1cc(-c2ccc(C(F)(F)F)cc2)nn(-c2cccc(F)c2)c1=O (racemic) [Example 242, 2-(3-Fluorophenyl)-3-oxo-N-[(2RS)-3,3,3-trifluoro-2-hydroxypropyl]-6-[4-(trifluoromethyl)phenyl]-2,3-dihydropyridazine-4-carboxamide]
IC50 (AHR [1]): > 2e-05 M
IC50 (AHR [2]): 1.18e-05 M

COCCC(CO)NC(=O)c1cc(-c2ccc(C(F)(F)F)cc2)nn(-c2cccc(F)c2)c1=O (racemic) [Example 259, 2-(3-Fluorophenyl)-N-[(2RS)-1-hydroxy-4-methoxybutan-2-yl]-3-oxo-6-[4-(trifluoromethyl)phenyl]-2,3-dihydropyridazine-4-carboxamide]
IC50 (AHR [1]): 3.82e-08 M
IC50 (AHR [2]): > 2e-05 M

O=C(NCC(O)C(F)F)c1cc(-c2ccc(C(F)(F)F)cc2)nn(-c2cccc(F)c2)c1=O (racemic) [Example 261, N-[(2RS)-3,3-Difluoro-2-hydroxypropyl]-2-(3-fluorophenyl)-3-oxo-6-[4-(trifluoromethyl)phenyl]-2,3-dihydropyridazine-4-carboxamide]
IC50 (AHR [1]): 2.26e-08 M
IC50 (AHR [2]): > 2e-05 M

CC(C)(O)C(O)CNC(=O)c1cc(-c2ccc(Cl)cc2)nn(-c2cccc(F)c2)c1=O (racemic) [Example 322, 6-(4-chlorophenyl)-N-[(2RS)-2,3-dihydroxy-3-methylbutyl]-2-(3-fluorophenyl)-3-oxo-2,3-dihydropyridazine-4-carboxamide]
IC50 (AHR [1]): 1.14e-07 M
IC50 (AHR [2]): > 2e-05 M

O=C(NC(CO)Cc1ccccn1)c1cc(-c2ccc(Cl)cc2)nn(-c2cccc(F)c2)c1=O (racemic) [Example 333, 6-(4-chlorophenyl)-2-(3-fluorophenyl)-N-[(2RS)-1-hydroxy-3-(pyridin-2-yl)propan-2-yl]-3-oxo-2,3-dihydropyridazine-4-carboxamide]
IC50 (AHR [1]): 1.34e-07 M
IC50 (AHR [2]): > 2e-05 M

O=C(NC(CO)Cc1ccncc1)c1cc(-c2ccc(Cl)cc2)nn(-c2cccc(F)c2)c1=O (racemic) [Example 334, 6-(4-chlorophenyl)-2-(3-fluorophenyl)-N-[(2RS)-1-hydroxy-3-(pyridin-4-yl)propan-2-yl]-3-oxo-2,3-dihydropyridazine-4-carboxamide]
IC50 (AHR [1]): 1.09e-07 M
IC50 (AHR [2]): > 2e-05 M

O=C(NC(CO)Cc1cccnc1)c1cc(-c2ccc(Cl)cc2)nn(-c2cccc(F)c2)c1=O (racemic) [Example 338, 6-(4-chlorophenyl)-2-(3-fluorophenyl)-N-[(2RS)-1-hydroxy-3-(pyridin-3-yl)propan-2-yl]-3-oxo-2,3-dihydropyridazine-4-carboxamide]
IC50 (AHR [1]): 7.32e-08 M
IC50 (AHR [2]): > 2e-05 M

O=C(NC(CCO)C(F)(F)F)c1cc(-c2ccc(Cl)cc2)nn(-c2cccc(F)c2)c1=O (racemic) [Example 340, 6-(4-chlorophenyl)-2-(3-fluorophenyl)-3-oxo-N-[(2RS)-1,1,1-trifluoro-4-hydroxybutan-2-yl]-2,3-dihydropyridazine-4-carboxamide]
IC50 (AHR [1]): 2.26e-08 M
IC50 (AHR [2]): > 2e-05 M

O=C(N[C@@H]1COC[C@@H]1O)c1cc(-c2ccc(C(F)(F)F)cc2)nn(-c2cccc(F)c2)c1=O (racemic) [Example 341, 2-(3-fluorophenyl)-N-(cis-4-hydroxytetrahydrofuran-3-yl)-3-oxo-6-[4-(trifluoromethyl)phenyl]-2,3-dihydropyridazine-4-carboxamide]
IC50 (AHR [1]): 8.45e-09 M
IC50 (AHR [2]): > 2e-05 M

O=C(N[C@@H]1CC[C@@H]1O)c1cc(-c2ccc(Cl)cc2)nn(-c2cccc(F)c2)c1=O (racemic) [Example 356, 6-(4-chlorophenyl)-2-(3-fluorophenyl)-N-(cis-2-hydroxycyclobutyl)-3-oxo-2,3-dihydropyridazine-4-carboxamide]
IC50 (AHR [1]): 4.18e-08 M
IC50 (AHR [2]): > 2e-05 M

COc1ccc(-c2cc(C(=O)N[C@@H]3CCCC[C@@H]3O)c(=O)n(-c3cccc(F)c3)n2)cc1 (relative stereo) [Example 106, 2-(3-Fluorophenyl)-N-(cis-2-hydroxycyclohexyl)-6-(4-methoxyphenyl)-3-oxo-2,3-dihydropyridazine-4-carboxamide]
IC50 (AHR [1]): 1.98e-08 M
IC50 (AHR [2]): > 2e-05 M

O=C(N[C@H]1CCCC[C@@H]1O)c1cc(-c2ccc(Cl)cc2)nn(-c2cccc(F)c2)c1=O (relative stereo) [Example 117, 6-(4-chlorophenyl)-2-(3-fluorophenyl)-N-(trans-2-hydroxycyclohexyl)-3-oxo-2,3-dihydropyridazine-4-carboxamide]
IC50 (AHR [1]): 3.67e-08 M
IC50 (AHR [2]): > 2e-05 M

O=C(N[C@@H]1CCCC[C@@H]1O)c1cc(-c2ccc(OC(F)F)cc2)nn(-c2cccc(F)c2)c1=O (relative stereo) [Example 130, 6-[4-(Difluoromethoxy)phenyl]-2-(3-fluorophenyl)-N-(cis-2-hydroxycyclohexyl)-3-oxo-2,3-dihydropyridazine-4-carboxamide]
IC50 (AHR [1]): 4.37e-08 M
IC50 (AHR [2]): > 2e-05 M

O=C(N[C@H]1COC[C@@H]1O)c1cc(-c2ccc(Cl)cc2)nn(-c2cccc(F)c2)c1=O (relative stereo) [Example 134, 6-(4-Chlorophenyl)-2-(3-fluorophenyl)-N-(trans-4-hydroxytetrahydrofuran-3-yl)-3-oxo-2,3-dihydropyridazine-4-carboxamide]
IC50 (AHR [1]): 1.72e-07 M
IC50 (AHR [2]): > 2e-05 M

C[C@H](O)[C@H](C)NC(=O)c1cc(-c2ccc(OC(F)F)cc2)nn(-c2cccc(F)c2)c1=O (relative stereo) [Example 143, rel-6-[4-(Difluoromethoxy)phenyl]-2-(3-fluorophenyl)-N-[(2S,3S)-3-hydroxybutan-2-yl]-3-oxo-2,3-dihydropyridazine-4-carboxamide]
IC50 (AHR [1]): 8.07e-08 M
IC50 (AHR [2]): > 2e-05 M

COc1ccc(-c2cc(C(=O)N[C@@H]3CCCC[C@H]3O)c(=O)n(-c3cccc(F)c3)n2)cc1 (relative stereo) [Example 152, 2-(3-Fluorophenyl)-N-trans-2-hydroxycyclohexyl-6-(4-methoxyphenyl)-3-oxo-2,3-dihydropyridazine-4-carboxamide]
IC50 (AHR [1]): 1.32e-07 M
IC50 (AHR [2]): > 2e-05 M

COc1ccc(-c2cc(C(=O)N[C@@H]3CCC[C@H]3O)c(=O)n(-c3cccc(F)c3)n2)cc1 (relative stereo) [Example 154, 2-(3-Fluorophenyl)-N-(trans-2-hydroxycyclopentyl)-6-(4-methoxyphenyl)-3-oxo-2,3-dihydropyridazine-4-carboxamide]
IC50 (AHR [1]): 1.69e-07 M
IC50 (AHR [2]): > 2e-05 M

O=C(N[C@@H]1CCCC(F)(F)[C@H]1O)c1cc(-c2ccc(Cl)cc2)nn(-c2cccc(F)c2)c1=O (relative stereo) [Example 274, 6-(4-Chlorophenyl)-N-[(trans)-3,3-difluoro-2-hydroxycyclohexyl]-2-(3-fluorophenyl)-3-oxo-2,3-dihydropyridazine-4-carboxamide]
IC50 (AHR [1]): 2.06e-08 M
IC50 (AHR [2]): > 2e-05 M

C[C@H](O)[C@H](C)NC(=O)c1cc(-c2ccc(Cl)c(F)c2)nn(-c2cccc(F)c2)c1=O (relative stereo) [Example 290, rel-6-(4-Chloro-3-fluorophenyl)-2-(3-fluorophenyl)-N-[(2S,3S)-3-hydroxybutan-2-yl]-3-oxo-2,3-dihydropyridazine-4-carboxamide]
IC50 (AHR [1]): 8.14e-08 M
IC50 (AHR [2]): > 2e-05 M

O=C(N[C@@H]1CCCC[C@@H]1O)c1cc(-c2ccc(Cl)c(F)c2)nn(-c2cccc(F)c2)c1=O (relative stereo) [Example 291, 6-(4-Chloro-3-fluorophenyl)-2-(3-fluorophenyl)-N-(cis-2-hydroxycyclohexyl)-3-oxo-2,3-dihydropyridazine-4-carboxamide]
IC50 (AHR [1]): 8.51e-08 M
IC50 (AHR [2]): > 2e-05 M

C[C@H](O)[C@H](C)NC(=O)c1cc(-c2ccc(Cl)c(Cl)c2)nn(-c2cccc(F)c2)c1=O (relative stereo) [Example 305, rel-6-(3,4-Dichlorophenyl)-2-(3-fluorophenyl)-N-[(2S,3S)-3-hydroxybutan-2-yl]-3-oxo-2,3-dihydropyridazine-4-carboxamide]
IC50 (AHR [1]): 1.21e-07 M
IC50 (AHR [2]): > 2e-05 M
